Values joined by “and” are separate entries in the source; they are usually repeats but may differ in a detail not shown here. Identical values can stand only once.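 Exposure lasted 48 hours, with cells grown in 96-well plates and compounds tested at five concentrations. Abbreviation: GI50, concentration required for 50% inhibition of growth. TGI: total growth inhibition.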
Key:
Test in all cases: NCI anticancer screen, dose series, 48 h
[1] = system: ACHN renal
[2] = system: A498 renal
[3] = system: NCI-H460 lung
[4] = system: K-562 leukemia
[5] = system: DU-145 prostate
[6] = system: SF-539 CNS
[7] = system: A549 NSCLC
[8] = system: PC-3 prostate
[9] = system: SR leukemia
[10] = system: SF-295 CNS

SMILES	GI50 [1]	TGI [1]	GI50 [2]	TGI [2]	GI50 [3]	TGI [3]	GI50 [4]	TGI [4]	GI50 [5]	TGI [5]	GI50 [6]	TGI [6]	GI50 [7]	TGI [7]	GI50 [8]	TGI [8]	GI50 [9]	TGI [9]	GI50 [10]	TGI [10]
CN(C)c1ccc(C(=S)c2ccc(N(C)C)cc2)cc1	13400 nM	> 100 µM	3.16 µM	74.8 µM	3.97 µM	> 100 µM	3.61 µM	> 100 µM	20.3 µM	> 100 µM	7.1 µM	56.4 µM	7.81 µM	> 100 µM	22.5 µM	> 100 µM	3750 nM	92.6 µM	4.73 µM	> 100 µM
CC1(C)OB(c2ccc(N(CCOS(C)(=O)=O)CCOS(C)(=O)=O)cc2)OC1(C)C	3000 nM	14.2 µM			12.6 µM	> 100 µM	16.3 µM	> 86.2 µM	23.3 µM	55.7 µM	7.55 µM	29.9 µM	15.1 µM	> 85.8 µM	15.6 µM	> 79.7 µM	23.4 nM	1.02 µM	12.9 µM	> 55 µM
CC[C@@]1(O)C(=O)OCc2c1cc1n(c2=O)Cc2cc3cc(Cl)ccc3nc2-1	2.28 nM	0.0107 µM	0.00878 µM and 0.0517 µM	0.132 µM and 0.221 µM	< 0.001 µM	0.0118 µM	0.00916 µM and 0.0873 µM	> 100 µM	0.00491 µM		0.00467 µM		0.00656 µM	1.42 µM and 1.21 µM	0.0427 µM		2.32 nM and 14.3 nM		< 0.001 µM	0.0893 µM
N#CCc1c(F)c(F)c(F)c(F)c1F		> 100 µM		> 100 µM				> 100 µM		> 100 µM		> 100 µM		> 100 µM		> 100 µM		> 100 µM		> 100 µM
C=CC(=O)N[C@@H]1CN(c2nc(Nc3cn(C)nc3OC)c3ncn(C)c3n2)C[C@H]1F	506 nM	> 100 µM	16.4 µM	67.7 µM	34.5 µM	> 100 µM	42.9 µM	> 100 µM	4.02 µM	> 91.7 µM	28.1 µM	> 100 µM	24.5 µM	> 100 µM	60.1 µM	> 100 µM	7570 nM	> 91.3 µM	38.9 µM	> 100 µM
Nc1n[n+]([O-])c2cc([N+](=O)[O-])ccc2[n+]1[O-]		14.4 µM		36.6 µM		16.1 µM		11.7 µM		31.7 µM		16 µM		44.6 µM		> 100 µM		18.4 µM		22.5 µM
Oc1ccc(NC(=S)Nc2ccccc2)cc1	> 100000 nM	> 100 µM	> 100 µM	> 100 µM	> 100 µM	> 100 µM	> 100 µM	> 100 µM	> 100 µM	> 100 µM	> 100 µM	> 100 µM	> 100 µM	> 100 µM	> 100 µM	> 100 µM	> 100000 nM	> 100 µM	> 100 µM	> 100 µM
OCC#CCOCC#Cc1ccccc1C#CCOCC#CCO	27800 nM	85.8 µM	58.7 µM	> 100 µM	48.6 µM	> 100 µM	27 µM	90 µM	48.4 µM	> 100 µM	47.4 µM	> 100 µM	50.9 µM	> 100 µM	22.5 µM	> 100 µM	18500 nM	> 100 µM	> 100 µM	> 100 µM
NC(N)=NN=c1c(=O)c2ccccc2c1=O	6460 nM	19.2 µM			2.92 µM	7.14 µM			1.9 µM	3.39 µM	5.67 µM	18 µM	12.4 µM	30.5 µM	12.7 µM	29.8 µM	2400 nM	5.92 µM	13.6 µM	27.7 µM
Cc1ccc2c(c1)[n+](=O)c(C(=O)c1cccs1)c(C(F)(F)F)n2[O-]	1250 nM and 541 nM	6.47 µM and 4.68 µM			0.616 µM and 0.359 µM		1.01 µM and 0.466 µM	50 µM and 19.5 µM	0.913 µM and 0.573 µM	2.08 µM and 2.42 µM	0.997 µM	2.36 µM	1.72 µM and 0.764 µM	20.9 µM and 10.8 µM	0.528 µM and 1.38 µM		152 nM	50 µM	0.786 µM and 0.842 µM	2.46 µM and 5.87 µM
Cc1c2cnccc2c(C)c2c1c1cc(O)ccc1n2C(C)C	285 nM	1.77 µM	2 µM	13.3 µM	0.361 µM	1.56 µM	1.02 µM	5.6 µM	0.688 µM	7.06 µM	1.32 µM	2.9 µM	0.744 µM	8.17 µM	1.12 µM	3.71 µM			1.7 µM	5.35 µM
C=C1CCC2CC1C(C(=O)c1c[nH]c3ccccc13)=NC2(C)C (configuration not stated)		> 100 µM		> 100 µM		> 100 µM		> 100 µM		> 100 µM		> 100 µM		> 100 µM		> 100 µM		> 100 µM		
Cc1cc(F)c(C(=O)Nc2cccc(-c3nncn3C(C)C)n2)cc1-n1cnc(C2CC2)c1	10400 nM	27.7 µM	14.2 µM	62.6 µM	14.5 µM	96.4 µM				> 100 µM	11.6 µM	34.4 µM	15.2 µM	74 µM	16.6 µM	92.4 µM	4420 nM	> 100 µM	13.3 µM	80.9 µM
CCN(C(=O)N1CCN(c2cc3c(cc2F)c(=O)c(C(=O)O)cn3C2CC2)CC1)c1nc(-c2ccccc2)cs1	1690 nM	9.47 µM			3.11 µM	> 100 µM	3.2 µM	> 100 µM	3.31 µM	> 100 µM	2.48 µM	7.51 µM	3.11 µM	> 100 µM	2.74 µM	> 100 µM	1540 nM	9.92 µM	2.24 µM	8.51 µM

— PubChem BioAssay (NCI)
